Residues, ends and D or L forms follow the SMILES beside them.
Target: T1, CD47 (Homo sapiens, UniProt Q08722)
T1 construct: MEC-1 or Jurkat membrane preparation is labeled using the Nanotemper NT-647 labeling kit; endogenous in cells; host or cells: Jurkat and/or MEC-1 cell membrane preparation
Assay: Binding affinity by Microscale Thermophoresis on labeled Jurkat and/or MEC-1 cell membrane preparation
Excerpt: FIG. 5 and FIG. 6. Binding curve measured by MST. The measurement method is based on the directed movement of molecules along a temperature gradient, an effect termed “thermophoresis”. A local temperature difference ΔT leads to a local change in molecule concentration (depletion or enrichment), quantified by the Soret coefficient ST: chot/ccold=exp(−STΔT). Jurkat or Mec-1 cell membrane preparations are labeled using the Nanotemper NT-647 labeling kit as described elsewhere.xliv The labeled preparation is eluted with PBS and stored at 4° C. A stock solution of each peptide is prepared in DMSO (5 mM) and then diluted with PBS. For the peptides evaluated by MST, we have kept the concentration of the NT.115-labeled membrane constant, while the concentration of the ligand (peptide) was varied. […]
Binding affinity measurements. The binding affinities of peptides, here PKT16, PKTD1, PKTD10, PKTD10-1, PKTD10-3, PKTD10-5, PKDT10-7 and PKTD10-8 for a membrane preparation from Jurkat and/or MEC-1 cells were measured by Microscale Thermophoresis^xlv on a Monolith NT115-pico system (Nanotemper Technologies, Munich, Germany).
Binding curve measured by MST. […] A local temperature difference ΔT leads to a local change in molecule concentration (depletion or enrichment), quantified by the Soret coefficient ST: chot/ccold=exp(−STΔT). […]

T1 sequence (Q08722 19-323): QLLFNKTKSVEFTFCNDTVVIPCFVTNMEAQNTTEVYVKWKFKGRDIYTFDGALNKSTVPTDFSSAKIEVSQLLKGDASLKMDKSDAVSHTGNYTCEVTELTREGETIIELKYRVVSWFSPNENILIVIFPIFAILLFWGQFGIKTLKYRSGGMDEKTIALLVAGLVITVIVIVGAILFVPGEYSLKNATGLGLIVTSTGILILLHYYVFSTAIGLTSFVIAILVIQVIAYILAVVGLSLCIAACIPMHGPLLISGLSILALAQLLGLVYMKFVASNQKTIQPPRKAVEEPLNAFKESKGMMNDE

binding affinities (Kd), order of magnitude in words: micromolar range
SMILES: CCCC[C@H](NC(=O)[C@@H](NC(=O)[C@@H](NC(=O)[C@H](Cc1ccc(O)cc1)NC(=O)[C@H](Cc1ccccc1)NC(=O)[C@H](CCCNC(=N)N)N(C)C(=O)[C@H](N)CCCCN)C(C)C)C(C)C)C(=O)N[C@@H](Cc1c[nH]c2ccccc12)C(=O)N[C@@H](CCCCN)C(=O)N[C@H](CCCCN)C(=O)O [PKT16, (D)Lys-(N-Me)Arg-Phe-Tyr-Val-Val-Nle-Trp-Lys-(D)Lys] (HELM PEPTIDE1{[dK].[meR].F.Y.V.V.[Nle].W.K.[dK]}$$$$V2.0; N-terminus and C-terminus assumed)
